# Test results taken from PubChem BioAssay (NCI).
#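 Values below derive from 48-hour exposures of cells grown in 96-well plates, with endpoints linearly interpolated between the two concentrations bracketing the appropriate inhibition level. At the TGI there is no net growth.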
# Columns and labels:
# Assay in all cases: NCI-60 cell line screen, 48 h
# SF-268 CNS = tested on: SF-268 CNS
# MDA-MB-435 = tested on: MDA-MB-435
# SK-OV-3 ovarian = tested on: SK-OV-3 ovarian
# UO-31 renal = tested on: UO-31 renal
# MDA-MB-231 breast = tested on: MDA-MB-231 breast
# RXF 393 renal = tested on: RXF 393 renal
# A549 NSCLC = tested on: A549 NSCLC
# COLO 205 colon = tested on: COLO 205 colon
# KM12 colon = tested on: KM12 colon
# XF 498 CNS = tested on: XF 498 CNS
# OVCAR-3 ovarian = tested on: OVCAR-3 ovarian
# SNB-75 CNS = tested on: SNB-75 CNS
# IGROV1 ovarian = tested on: IGROV1 ovarian
# A498 renal = tested on: A498 renal
# HT29 colon = tested on: HT29 colon
# SN12C renal = tested on: SN12C renal
# DMS 114 small cell lung = tested on: DMS 114 small cell lung
# RPMI-8226 leukemia = tested on: RPMI-8226 leukemia
# SW-620 colon = tested on: SW-620 colon
# SF-295 CNS = tested on: SF-295 CNS
# TK-10 renal = tested on: TK-10 renal
# NCI/ADR-RES ovarian = tested on: NCI/ADR-RES ovarian
# ACHN renal = tested on: ACHN renal
# T-47D breast = tested on: T-47D breast
# M19-MEL melanoma = tested on: M19-MEL melanoma
# MCF7 breast = tested on: MCF7 breast
# HCT-116 colon = tested on: HCT-116 colon
# HCT-15 colon = tested on: HCT-15 colon
# OVCAR-8 ovarian = tested on: OVCAR-8 ovarian
# SF-539 CNS = tested on: SF-539 CNS
# PC-3 prostate = tested on: PC-3 prostate
# KM20L2 colon = tested on: KM20L2 colon
# 786-0 renal = tested on: 786-0 renal
# U251 CNS = tested on: U251 CNS
# CCRF-CEM leukemia = tested on: CCRF-CEM leukemia
# SK-MEL-5 melanoma = tested on: SK-MEL-5 melanoma
# NCI-H23 lung = tested on: NCI-H23 lung
# HOP-92 NSCLC = tested on: HOP-92 NSCLC
# LOX IMVI melanoma = tested on: LOX IMVI melanoma
# HCC-2998 colon = tested on: HCC-2998 colon
# NCI-H226 lung = tested on: NCI-H226 lung
# HS 578T breast = tested on: HS 578T breast
# DU-145 prostate = tested on: DU-145 prostate
# HL-60(TB) leukemia = tested on: HL-60(TB) leukemia
# SNB-19 CNS = tested on: SNB-19 CNS
# SNB-78 CNS = tested on: SNB-78 CNS
# DMS 273 small cell lung = tested on: DMS 273 small cell lung
# SK-MEL-2 melanoma = tested on: SK-MEL-2 melanoma
# UACC-257 melanoma = tested on: UACC-257 melanoma
# NCI-H522 lung = tested on: NCI-H522 lung
# M14 melanoma = tested on: M14 melanoma
# EKVX NSCLC = tested on: EKVX NSCLC
# HOP-62 NSCLC = tested on: HOP-62 NSCLC
# UACC-62 melanoma = tested on: UACC-62 melanoma
# OVCAR-4 ovarian = tested on: OVCAR-4 ovarian
# K-562 leukemia = tested on: K-562 leukemia
# SK-MEL-28 melanoma = tested on: SK-MEL-28 melanoma
# CAKI-1 renal = tested on: CAKI-1 renal
# SR leukemia = tested on: SR leukemia
# MOLT-4 leukemia = tested on: MOLT-4 leukemia
# DLD-1 colon = tested on: DLD-1 colon
# HOP-18 NSCLC = tested on: HOP-18 NSCLC
# MALME-3M melanoma = tested on: MALME-3M melanoma
# BT-549 breast = tested on: BT-549 breast
# MDA-N = tested on: MDA-N
# NCI-H460 lung = tested on: NCI-H460 lung
# OVCAR-5 ovarian = tested on: OVCAR-5 ovarian
smiles,measurement,setting,value
COc1ccc(/C=C2\C(=O)NC(=O)c3ccccc32)cc1OC,TGI,SF-268 CNS,> 69.9 µM
same,TGI,MDA-MB-435,99.1 µM
same,TGI,SK-OV-3 ovarian,81 µM
same,TGI,UO-31 renal,80 µM
same,TGI,MDA-MB-231 breast,> 100 µM
same,TGI,RXF 393 renal,33.9 µM
same,TGI,A549 NSCLC,> 100 µM
same,TGI,COLO 205 colon,> 100 µM
same,TGI,KM12 colon,> 100 µM
same,TGI,XF 498 CNS,42.5 µM
same,TGI,OVCAR-3 ovarian,> 26.4 µM
same,TGI,SNB-75 CNS,> 87.5 µM
same,TGI,IGROV1 ovarian,> 83.2 µM
same,TGI,A498 renal,> 100 µM
same,TGI,HT29 colon,> 100 µM
same,TGI,SN12C renal,> 100 µM
same,TGI,DMS 114 small cell lung,18.4 µM
same,TGI,RPMI-8226 leukemia,47.9 µM
same,TGI,SW-620 colon,46.3 µM
same,TGI,SF-295 CNS,> 100 µM
same,TGI,TK-10 renal,> 100 µM
same,TGI,NCI/ADR-RES ovarian,> 100 µM
same,TGI,ACHN renal,> 74.7 µM
same,TGI,T-47D breast,> 100 µM
same,TGI,M19-MEL melanoma,> 100 µM
same,TGI,MCF7 breast,> 100 µM
same,TGI,HCT-116 colon,43.1 µM
same,TGI,HCT-15 colon,> 100 µM
same,TGI,OVCAR-8 ovarian,42.2 µM
same,TGI,SF-539 CNS,22.9 µM
same,TGI,PC-3 prostate,> 100 µM
same,TGI,KM20L2 colon,> 100 µM
same,TGI,786-0 renal,44.5 µM
same,TGI,U251 CNS,> 63.5 µM
same,TGI,CCRF-CEM leukemia,21.9 µM
same,TGI,SK-MEL-5 melanoma,> 94.4 µM
same,TGI,NCI-H23 lung,> 90.5 µM
same,TGI,HOP-92 NSCLC,39.8 µM
same,TGI,LOX IMVI melanoma,55.8 µM
same,TGI,HCC-2998 colon,> 100 µM
same,TGI,NCI-H226 lung,99 µM
same,TGI,HS 578T breast,> 100 µM
same,TGI,DU-145 prostate,> 100 µM
same,TGI,HL-60(TB) leukemia,16.2 µM
same,TGI,SNB-19 CNS,> 93.6 µM
same,TGI,SNB-78 CNS,> 66.2 µM
same,TGI,DMS 273 small cell lung,> 100 µM
same,TGI,SK-MEL-2 melanoma,> 94.5 µM
same,TGI,UACC-257 melanoma,> 100 µM
same,TGI,NCI-H522 lung,49.6 µM
same,TGI,M14 melanoma,> 100 µM
same,TGI,EKVX NSCLC,> 100 µM
same,TGI,HOP-62 NSCLC,58.3 µM
same,TGI,UACC-62 melanoma,78.2 µM
same,TGI,OVCAR-4 ovarian,62.1 µM
same,TGI,K-562 leukemia,> 70.9 µM
same,TGI,SK-MEL-28 melanoma,> 100 µM
same,TGI,CAKI-1 renal,> 100 µM
same,TGI,SR leukemia,18.9 µM
same,TGI,MOLT-4 leukemia,76.6 µM
same,TGI,DLD-1 colon,19.2 µM
same,TGI,HOP-18 NSCLC,> 100 µM
same,TGI,MALME-3M melanoma,> 100 µM
same,TGI,BT-549 breast,> 100 µM
same,TGI,MDA-N,> 66.8 µM
same,TGI,NCI-H460 lung,67.4 µM
same,TGI,OVCAR-5 ovarian,> 100 µM
COc1ccc(CNc2cnc3ccc(N)cc3n2)cc1OC,TGI,SF-268 CNS,> 100 µM
same,TGI,UO-31 renal,> 100 µM
same,TGI,A549 NSCLC,> 100 µM
same,TGI,COLO 205 colon,> 100 µM
same,TGI,KM12 colon,> 100 µM
same,TGI,XF 498 CNS,> 100 µM
same,TGI,OVCAR-3 ovarian,> 100 µM
same,TGI,SNB-75 CNS,> 100 µM
same,TGI,HT29 colon,> 100 µM
same,TGI,SN12C renal,> 100 µM
same,TGI,DMS 114 small cell lung,> 100 µM
same,TGI,RPMI-8226 leukemia,> 100 µM
same,TGI,SW-620 colon,> 100 µM
same,TGI,SF-295 CNS,> 100 µM
same,TGI,TK-10 renal,> 100 µM
same,TGI,ACHN renal,> 100 µM
same,TGI,M19-MEL melanoma,> 100 µM
same,TGI,HCT-116 colon,> 100 µM
same,TGI,HCT-15 colon,> 100 µM
same,TGI,OVCAR-8 ovarian,> 100 µM
same,TGI,SF-539 CNS,> 100 µM
same,TGI,786-0 renal,> 100 µM
same,TGI,CCRF-CEM leukemia,> 100 µM
same,TGI,SK-MEL-5 melanoma,> 100 µM
same,TGI,NCI-H23 lung,> 100 µM
same,TGI,LOX IMVI melanoma,> 100 µM
same,TGI,HCC-2998 colon,> 100 µM
same,TGI,NCI-H226 lung,> 100 µM
same,TGI,HL-60(TB) leukemia,> 100 µM
same,TGI,SNB-19 CNS,> 100 µM
same,TGI,SNB-78 CNS,> 100 µM
same,TGI,DMS 273 small cell lung,> 100 µM
same,TGI,SK-MEL-2 melanoma,> 100 µM
same,TGI,UACC-257 melanoma,> 100 µM
same,TGI,NCI-H522 lung,> 100 µM
same,TGI,M14 melanoma,> 100 µM
same,TGI,EKVX NSCLC,> 100 µM
same,TGI,OVCAR-4 ovarian,> 100 µM
same,TGI,K-562 leukemia,> 100 µM
same,TGI,SK-MEL-28 melanoma,> 100 µM
same,TGI,CAKI-1 renal,> 100 µM
same,TGI,SR leukemia,> 100 µM
same,TGI,MOLT-4 leukemia,> 100 µM
same,TGI,DLD-1 colon,> 100 µM
same,TGI,HOP-18 NSCLC,> 100 µM
same,TGI,MALME-3M melanoma,> 100 µM
same,TGI,NCI-H460 lung,> 100 µM
same,TGI,OVCAR-5 ovarian,> 100 µM
